Tests used:
MC38 tumor = test: Tumor growth inhibition in the MC38 syngenic model; type: in vivo, mouse (female C57BL/6); conditions: MC38 SC model, oral once a day
Protocol: Female C57BL/6 mice bred in-house were used in this efficacy study in the MC38 model. Animals were 6-8 weeks-old and weighed between 13 and 21 g. Animals were marked individually with tail marks and kept in cages that were identified by a cage card showing the study code, date of experimentation, sex and number of animals. During the experiment, the animals were weighed daily.
Tumor cells were cultured according to the procedure explained in the literature (U.S. Pat. No. 9,333,256; A. Filatenkov et al., J. Immunol., 2009. 183(11): 7196-7203). Tumor cells were ensured Mycoplasma free by performing Mycoplasma detection with MYCOALERT®Mycoplasma Detection Kit (Lonza) in accordance with manufacturer instructions. MYCOALERT® Assay is a selective biochemical test that exploits the activity of mycoplasmal enzymes. Viable Mycoplasma would be lysed and enzymes react with MYCOALERT® substrate, catalyzing the conversion of ADP to ATP. […]
MC38 cells were cultured according to the information in published literature (A. Filatenkov et al., J. Immunol., 2009. 183(11): 7196-7203; S. F. Ngiow et al., Cancer Res., 2011. 71(10): 3540-3551). […] Tumor volumes were measured 3 times a week, body weight and clinical signs were monitored every day. […]

CT-26 tumor = test: Tumor growth inhibition in the CT-26 syngeneic mouse tumor model; type: in vivo, mouse (female Balb/c); conditions: CT-26 tumor bearing Balb/c mice, vs Vehicle (H2O)
Excerpt: The purpose of this study is to determine the effect of Cmd 1 and Cmd 32 on growth inhibition (efficacy) in CT-26 tumor bearing mice when administered once daily by oral gavage as single agents or in combination. Cmd 1 and Cmd 32 are small molecule immune modulating agents for treatment of cancer.
Female Balb/c Mice from Charles River Laboratories −20-25 grams; 9-10 weeks old; Strain code: 028.
CT-26 cells were expanded in T225 tissue culture treated flasks in RPMI-1640 medium supplemented with 10% FBS ([…]) and cultured at 37° C. (5% CO2) in a humidified cell culture incubator. Cells were passaged every 3-4 days by detachment with 1× Trypsin/EDTA. Cells were re-plated on 5 flasks in complete RPMI1640 medium.
On the day of implantation, the cells were collected from flasks washed with phosphate buffer solution and detached with Trypsin/EDTA and washed once in phosphate buffer solution with no additives. Cells were resuspended in serum free DMEM at a final concentration of 1×10^6 cells/mL and kept on ice until administered to mice. The cells were kept on ice for no more than 1 hour before administration to the mice. […]
Animals were monitored until tumors were palpable and were then measured until tumor volume reached 100-200 mm^3. […] Tumor cells were counted on a MACSQuant Analyzer with propidium iodide (PI) for live/dead discrimination. […]

[1] = Mortality, body weight and clinical signs in the MC38 study; type: in vivo; conditions: Cmd 32 10 mg/kg group, one animal, no gross pathology, not reliably attributed to treatment
Protocol: Mortality/morbidity of animals, body weight loss and clinical symptoms were monitored. During study period all moribund animals were sacrificed and animals losing >20% of their body weight were also sacrificed. Body weights were recorded every day and clinical signs of toxicity were recorded once a day. Survival was recorded every day. A 15-20% loss of the body weight and/or animal death was considered as the criteria for toxicity. Behavioural, nesting and gross observations for clinical signs were made at least once every day during the course of the study.
At the end of the study (30 min after the last dose), animals were examined externally for possible abnormalities, weighed and sacrificed by CO2 asphyxiation.

[2] = test system: intratumoral T cell populations; test: Cell-surface marker assays of intratumoral T cell populations in the CT-26 model; type: in vivo, mouse (female Balb/c); conditions: Cmd 32 50 mg/kg, CT-26 tumors
Protocol: Animals were monitored until tumors were palpable and were then measured until tumor volume reached 100-200 mm^3. They were then randomized into groups using LabCat software and dosing started the following day. Blood was collected in EDTA tubes and kept on ice. Tumor were collected in 15 mL tubes with RPMI-1640 w/10% FBS on ice. Tumors proceeded to the Miltenyi Biotec mouse tumor dissociation kit. Tumor cells were counted on a MACSQuant Analyzer with propidium iodide (PI) for live/dead discrimination. Percent tumor growth inhibition on Day 20 is tabulated below (Table 11). Tumor volume of individual animals on day 20 and the tumor growth over the course of the study are represented in FIG. 1A and FIG. 1B respectively. Cell-surface marker assays were used to identify intratumoral T cell populations and calculate CD8+ (CTL; cytotoxic T-cell): Treg (regulatory T cell) ratio.

Compound	Percent tumor growth inhibition (TGI) (MC38 tumor; Cmd 1 10 mg/kg, Cmd 32 0 mg/kg) [%]	% TGI (Day 20), percent tumor growth inhibition (CT-26 tumor; Cmd 1 100 mg/kg QD PO) [%]	Mortality [1]	Percent tumor growth inhibition (TGI) (MC38 tumor; Cmd 32 10 mg/kg, Cmd 1 0 mg/kg) [%]	% TGI (Day 20), percent tumor growth inhibition (CT-26 tumor; Cmd 32 50 mg/kg QD PO) [%]	Tumor granzyme-B+/PD-1+/Tim-3+ T cells (percent of CD8) ([2]; FIG. 2B)	Tumor granzyme-B+/PD-1+/Tim-3- T cells (percent of CD8) ([2]; FIG. 2C)
CC(O)[C@H](NC(=O)N[C@@H](CC(N)=O)c1nc([C@@H](N)CO)no1)C(=O)O (stereo in doubt) [Cmd 1]	25	23	–	–	–	–	–
CC(O)[C@H](NC(=O)N[C@@H](CCC(=O)O)c1nc([C@@H](N)CO)no1)C(=O)O (stereo in doubt) [Cmd 32]	–	–	found dead	10	24	increase	concomitant decrease
